The record followed here is paper PMC5648763, “Novel cycloneolignans from Vernicia fordii with inhibitory effects on over-activation of BV2 cells in vitro” (Scientific Reports, 2017).

Common to all, as to assay type: cell-based, murine
Data set [1] concerns IL-1β mRNA expression in BV2 cells. Nature of the data set: LPS-induced IL-1β mRNA expression in BV-2 cells (Real-time PCR). The settings on record: 10 μM, pretreated 2 h, then LPS (100 ng/mL) 4 h, qRT-PCR. The procedure: (§1) Figure 7 Effects of compounds 1, 1a, 1b, 2, 2a and 2b on LPS-induced IL-6 and IL-1β mRNA expression in microglial cells. BV-2 microglial cells were pretreated with compounds1, 2, 1a, 1b, 2a and 2b (10 μM) for 2 h and then stimulated with LPS (100 ng/mL). Total RNA was isolated 4 h after LPS treatment, the mRNA levels of IL-6 and IL-1β were measured by qRT-PCR. Data are expressed as means ± SEM (n = 3). ^#P < 0.05 compared with the control group, *P < 0.05 compared with LPS group. Mino stands for minocycline.
(§2) The murine microglial cell line BV-2 was from Shanghai Institutes for Biological Sciences, Chinese Academy of Sciences (kindly provided by Prof. Y.Q. Guo, Nankai University, China). BV-2 cells were grown (37 °C and 5% CO2) in DMEM supplemented with 10% FBS, 100 U/ml penicillin and 100 μ g/ml streptomycin. Stock cells were passaged about three times/week and used within 8 passages.
(§3) BV2 cells (4 × 10^5 cells/ml) were plated into 6-well plates and were pretreated with each sample for 2 h and then induced by LPS for 4 h. After that the total RNA was isolated using Trizol and converted to cDNA. CFX ConnectTM real-time PCR detection system (Bio-Rad, Hercules, CA, USA) was used for the experiment. The level of GAPDH gene was used for standardization.

Data set [2] relates to IL-6 mRNA expression in BV2 cells. Put plainly: LPS-induced IL-6 mRNA expression in BV-2 cells (Real-time PCR). The settings on record: 10 μM, pretreated 2 h, then LPS (100 ng/mL) 4 h, qRT-PCR. The procedure:
as §1, §2, §3
(In general: In qPCR the cycle at which signal appears reflects the starting amount.)

The subject of data set [3] is NO production in LPS-induced BV2 cells. Put plainly: Nitrite assay (Griess reaction): NO production in LPS-induced BV2 cells. As to conditions: Mus musculus, BV-2, LPS (100 ng/ml)-activated BV2 cells, 24 h, read-out: Inhibitory effect IC50 on NO production (compounds). The procedure: (§4) Figure 5 Effect of compounds 1 and 2 on LPS-induced NO production in microglial cells. (A) BV-2 cells were treated with compounds 1 and 2 in the presence of LPS (100 ng/ml) for 24 h at the indicated concentrations. Cell viability was detected by MTT assay. (B) BV-2 cells were treated with compounds 1 and 2 in the presence of LPS (100 ng/ml) for 24 h. NO production was tested by Griess reaction. Data are expressed as means ± SEM (n = 3). ^#P < 0.05 compared with the control group, *P < 0.05 compared with LPS group.
as §2
The production of NO in LPS-induced BV2 cells was assayed by Griess reaction[9]–[12]. The cells (2 × 10^4 cells/well) were plated into 96-well plates and incubated with tested samples with 100 ng/mL LPS. Twenty-four hours later, Griess reagent was added into the supernatant at room temperature. And the plates were read on a plate reader at 540 nm after fifteen minutes.

Data set [4] is described as follows: Cell viability / cytotoxicity by MTT method. As to conditions: mouse. The procedure:
as §4, §2
(§5) Viability of BV2 cells was tested by MTT method described in our previous work[9]–[12]. The cells (2 × 10^4 cells / well) were plated into 96-well plates and were pretreated with tested samples at different concentrations for 24 h. After the supernatant taken away, MTT (0.25 mg/ml) was added into the plate and incubated for 4 h at 37 °C. Finally, the formazan crystals were dissolved in DMSO and the absorbance of each well was recorded at 490 nm using a plate reader (Bio-Tek, Winooski, VT, USA).

In data set [5] the test system is BV2 cells. Nature of the data set: Cell viability / cytotoxicity by MTT method. The procedure: as §4, §2, §5

Regarding `COC1CC2(O)OCC(c3cc(O)c(O)cc31)C2c1ccc(O)c(O)c1` (stereo not shown) [Compound 2a, 7R, 8R, 7′R, 9′S−7′-methoxylverniciasin A], the “Effect on LPS-induced IL-1β mRNA expression” value in data set [1] is recorded as “moderate inhibitory effect”. Moreover, in data set [2], the “Effect on LPS-induced IL-6 mRNA expression” value is given as “moderate inhibitory effect”.

For `COC1CC2(O)OCC(c3cc(O)c(O)cc31)C2c1ccc(O)c(O)c1` (racemic) [Compound 2, (±) methoxylverniciasin A], in data set [1], the “Effect on LPS-induced IL-1β mRNA expression” value was “did not show inhibitory effect”. Besides, the IC50 (in general, the concentration at which inhibition is half-maximal) in data set [3] was found to be 17.4 ± 0.87 µM. In addition, the “Effect on LPS-induced IL-6 mRNA expression” value in data set [2] is recorded as “did not show inhibitory effect”. For the same molecule, in data set [4], the IC50 at 24 h was greater than 100 µM. Moreover, the “Cytotoxicity at the effective concentrations” value in data set [5] is on record as “without obvious cytotoxicities”.

As to `Oc1ccc(C2C3COC2(O)CC(O)c2cc(O)c(O)cc23)cc1O` (stereo not shown) [Compound 1a, 7R, 8R, 7′R, 9′S-verniciasin A], the “Effect on LPS-induced IL-1β mRNA expression” value in data set [1] is listed as “significant inhibitory action”. Further, the “Effect on LPS-induced IL-6 mRNA expression” value in data set [2] is given as “significant inhibitory action”.

In the case of `Oc1ccc(C2C3COC2(O)CC(O)c2cc(O)c(O)cc23)cc1O` (stereo not shown) [Compound 1b, 7S, 8S, 7′S, 9′R- verniciasin A], the “Effect on LPS-induced IL-1β mRNA expression” value in data set [1] was “did not display inhibitory activity”. Also, the “Effect on LPS-induced IL-6 mRNA expression” value in data set [2] is “did not display inhibitory activity”.

As for `Oc1ccc(C2C3COC2(O)CC(O)c2cc(O)c(O)cc23)cc1O` (stereo not shown) [Compound 1, Verniciasin A], the “Effect on LPS-induced IL-1β mRNA expression” value in data set [1] is “suppressed”. For the same molecule, the IC50 in data set [3] was determined as 1.46 ± 0.91 µM. Besides, in data set [2], the “Effect on LPS-induced IL-6 mRNA expression” value is given as “suppressed”. Besides, in data set [4], the IC50 at 24 h is greater than 100 µM. Also, the “Cytotoxicity at the effective concentrations” value in data set [5] is listed as “without obvious cytotoxicities”.
